SMILES strings stand for the structures.

The values that follow come from patent US20250065017A1, “Fractionating Extracellular Matrix to Modulate Bioactivity and the Host Response” (University of Pittsburgh - Of the Commonwealth System of …, priority 2014, published 2025).

One assay relates to C2C12 murine myoblasts. The assay can be described thus: In vitro myogenesis, THP1/C2C12 transwell co-culture. The class given is cell-based. Here is the method:
C2C12 murine myoblasts were obtained from ATCC and grown in complete media (DMEM, 10% FBS, 1% penicillin/streptomycin) at 37° C./5% CO2 according to the ATCC recommendations. Myoblasts were seeded at a density of 5,000 cells/cm^2 in 24 well plates and allowed proliferate to 90% confluence. Cells were then washed in 1×PBS and incubated in differentiation media (DMEM, 2% horse Serum, 1% penicillin/streptomycin) for 24 hours. Cells were washed in 1×PBS and placed in basal media (DMEM, 1% penicillin/streptomycin). A transwell insert (Corning) containing 100,000 differentiated THP1 cells (as described in section 2.9) in 200 μL of complete THP1 cell media was placed in each well. UBM hydrogel (0.5 mg/mL, final concentration) was then added to the THP1 transwell insert only. […] A standardized image capture system and quantitative analysis of in vitro myogenesis was performed as previously described (Goh […], Corbett J T, Pierre […], Pizza F X. Intercellular adhesion molecule-1 expression by skeletal muscle Cells Augments myogenesis. Exp Cell Res 2014). Briefly, custom macro functions (Image […]; Media Cybernetics Inc.) were used to objectively quantify several important myogenesis parameters (e.g., the number of nuclei, myotubes, and nuclei within a myotube). […] The fusion index was calculated by expressing the number of nuclei within myotubes as a percentage of total nuclei.

The test system of assay [1] is primary rat bone marrow derived macrophages. The experiment in a line: PGE2 secretion in primary BMDM. It is filed as cell-based. The conditions noted are these: UBM hydrogel 0.5 mg/mL 48 hours; inhibitor pre-treatment 1 hour. Here is the method:
Rat bone marrow mononuclear cells were matured to macrophages as previously described ([…], Forster O. Differentiation of rat bone marrow cells into macrophages under the influence of mouse L929 cell supernatant. J Leukoc Biol 1987;41(1):83-91). […] The cell pellet was resuspended in red blood cell (RBC) lysis buffer (155 mM NH4Cl, 10 mM KHCO3, 0.9% EDTA in distilled water) and incubated for 15 minutes on ice. Cell debris was removed by centrifugation and the cell pellet was resuspended in macrophage maturation media (DMEM high glucose, 10% heat inactivated FBS, 20% L929 fibroblast conditioned media, 0.5 mM MEM non-essential amino acids, 2 mM L-glutamine, 10 mM Hepes pH 7.4, 1% penicillin/streptomycin, 0.12% 50 mM 2-mercaptoethanol). Cells were seeded at a density of 1 million/mL in 6 well plates and incubated at 37° C./5% CO2. Media was changed every 2-3 days for 7 days. Matured bone marrow derived macrophages (BMDMs) were treated with 1 mL of StemPro® Accutase® (Invitrogen), incubated at 37° C. for 10 minutes, and detached with gentle pipetting. The cell suspension was collected and centrifuged for 5 mins at 1400 rpm. […] Secreted factor concentrations in the culture supernatants were determined using commercially available ELISA kits (PGE2, PGF2α, ENZO Life Sciences) and IL-1RA (R&D Systems)) according to the manufacturer's instructions.

In the case of `CC(=O)Oc1ccccc1C(=O)O` [Aspirin], the myogenesis metrics result in the assay with C2C12 murine myoblasts (Aspirin 200 μM co-administered with UBM 0.5 mg/mL, 48 hours) is reported as “reduced these myogenesis metrics down to control levels”. The “reduction in fusion index” value in the assay on C2C12 murine myoblasts (Aspirin with UBM, THP1/C2C12 co culture) was found to be 92%. Also, the PGE2 production result in assay [1] is reported as “reduced PGE2 production to baseline levels”.
